Measured values from patent publication US11013232B2, “Hydrotesting and mothballing composition and method of using combination products for multifunctional water treatment” (priority 2014, dated 2021).

Tested on: 5 species of bacteria in a simulated marine environment
Assay: Molecular technique biocidal properties (qPCR of 16s rDNA)
Type: cell-based
Details: for 7 day DNA (copies) / 14 day DNA (copies) / 21 day DNA (copies): dose rate 500 ppm
Experimental: Molecular techniques were performed on the best performing (Formulation 3) commercial product and the embodiments of the invention Formulation 1 and Formulation 2. This aim of the study was to investigate the efficiency of the biocides on inhibiting 5 species of bacteria in a simulated marine environment. This study was conducted over a 21 day period and involved several marine species of bacteria which have all been previously linked with attributing to corrosion. […] A control was used in the testing and glutaraldehyde was selected for this role.
For each species 3 individual inoculums for each replicate were grown from an isolated single colony picked from agar plates. The species used were Desulfovibrio desulfricans (SRB), Shewanella putrefaciens (IRB), Thiobacillus thioparus (SOB), Pseudomonas aeruginosa (biofilm) and Methanolibacter arachidis (methanogens). Following 24 hours of incubation on an orbital shaker, cells were centrifuged and the pelleted cells washed with phosphate buffered saline (PBS). Washed cells were then suspended in PBS and measured to a set optical density via UV spectrometry at 600 nm. Each species was then used to inoculate cultures to give a final starter concentration of 0.01 at 600 nm. Each treatment was conducted in triplicate with each replicate being started at alternative time periods to reduce culture bias and human error. Three negative controls and three positive controls were established for each temperature under study.
The trials were conducted in 125 mL Erlenmeyer flasks containing 75 mL of marine broth, which were subsequently autoclaved for 20 min at 121° C. All bottles were incubated at either 4° C. or 25° C. on an orbital shaking platform at 150 rpm. Triplicate biocide treatments were established at each temperature at concentrations of 500, 750 and 1000 ppm. At each weekly interval, 2 mL samples were collected at 7, 14 and 21 days from each bottle. These were subjected to a co-extraction of DNA which was measured with qPCR. The gene target in this study was 16s rDNA a conserved gene present in all bacteria and Achaea.

## O=CCCCC=O [Glutaraldehyde, Pentane-1,5-dial]
4° C., 500 ppm
  fold increase in growth compared to the highest level seen in the other biocides: 15.8 fold
25° C., 500 ppm
  fold increase in copy number compared to the highest count in the invention formulation biocide flasks: 670 fold
4° C.
  7 day DNA (copies): 2.60E+04 copies
  14 day DNA (copies): 1.11E+08 copies
  21 day DNA (copies): 7.22E+07 copies
25° C.
  7 day DNA (copies): 8.85E+04 copies
  14 day DNA (copies): 1.00E+03 copies
  21 day DNA (copies): 2.51E+10 copies
